The source of these data is patent US10227371B2, “Polymorphs and new solid states of tiacumicin B” (XELLIA PHARMACEUTICALS APS, priority 2014, dated 2019).

Structures are written as SMILES.

What all share (type): physicochemical
The nature of series [1]: XRPD of Tiacumicin solvate forms during storage. The settings on record: FIG. 8A / FIG. 9A. An excerpt:
FIG. 8A: XRPD of the Tiacumicin solvate form a during storage. FIG. 9A: XRPD of the Tiacumicin solvate form β during storage. The obtained material comprised 16% w/w acetic acid as measured by TG-FTIR. The obtained material comprised 9% w/w isopropylacetate as measured by TG-FTIR.

The nature of series [2]: Stability of high purity amorphous Tiacumicin material on storage (XRPD). As for the experimental part:
Stoe Stadi P; Mythen1K Detector; Cu-Kα1 radiation; standard measurement conditions: transmission; 40 kV and 40 mA tube power; curved Ge monochromator; 0.02°2θ step size, 12 s step time, 1.5-50.5°2θ scanning range; detector mode: step scan; 1°2θ detector step; standard sample preparation: 10 to 20 mg sample was placed between two acetate foils; sample holder: Stoe transmission sample holder; the sample was rotated during the measurement. Filenames of patterns recorded on this instrument consist of a three-digit number followed by a letter.
Bruker D8; Copper Ka radiation, 40 kV/40 mA; LynxEye detector, 0.02°2θ step size, 37 s step time.
The samples were generally measured without any special treatment other than the application of slight pressure to get a flat surface. Silicon single crystal sample holder types: a) standard holder for polymorphism screening, 0.1 mm deep, less than 20 mg sample required; b) 0.5 mm deep, 12 mm cavity diameter for c. 40 mg; c) 1.0 mm deep, 12 mm cavity diameter for c. 80 mg. All samples measured on the Bruker D8 are rotated during the measurement.
Several samples of high purity amorphous Tiacumicin B material were stored at 40° C./75% relative humidity.
Several samples of high purity amorphous Tiacumicin B material were stored at room temperature under normal light conditions.

A short description of series [3]: Hygroscopicity / water uptake of high purity amorphous Tiacumicin material. From the text:
Thus the high purity amorphous Tiacumicin material is relatively stable with respect to crystallization and suitable for long-term storage (e.g storage for 3 months, 6 months, 9 months etc.).

Regarding `CCc1c(Cl)c(O)c(Cl)c(O)c1C(=O)O[C@H]1[C@H](O)[C@H](OC)[C@H](OC/C2=C\C=C\C[C@H](O)/C(C)=C/[C@H](CC)[C@@H](O[C@@H]3OC(C)(C)[C@@H](OC(=O)C(C)C)[C@H](O)[C@@H]3O)/C(C)=C/C(C)=C/C[C@@H]([C@@H](C)O)OC2=O)O[C@@H]1C` [form α of Tiacumicin B, Tiacumicin B], the “Suitability for storage (XRPD during storage)” value in series [1] was “storage suitable”.
`CCc1c(Cl)c(O)c(Cl)c(O)c1C(=O)O[C@H]1[C@H](O)[C@H](OC)[C@H](OC/C2=C\C=C\C[C@H](O)/C(C)=C/[C@H](CC)[C@@H](O[C@@H]3OC(C)(C)[C@@H](OC(=O)C(C)C)[C@H](O)[C@@H]3O)/C(C)=C/C(C)=C/C[C@@H]([C@@H](C)O)OC2=O)O[C@@H]1C` [Tiacumicin B]: in series [2] (as demonstrated in example 7), the “Suitability for storage (stability with respect to crystallization)” value is listed as “suitable for storage”. Also, the “Solid state by XRPD after storage” value is listed as “amorphous material” in series [2] (room temperature storage, at 3 months); “amorphous material” in series [2] (stored at 40° C./75% relative humidity, XRPDs at start, 24 hours, 7 days and 1 month); “amorphous material” in series [2] (stored at room temperature under normal light conditions, XRPDs at start, 1 month and 2 months). In addition, the Deliquescence result in series [3] is on record as “not deliquescent”. For the same compound, the “Hygroscopicity (water uptake)” value in series [3] (FIG. 7C) was “hygroscopic with near linear water uptake”.
